From PubChem BioAssay (NCI)
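Where inhibition never reached the appropriate level, the endpoint shown equals the highest concentration tested. Otherwise, values were interpolated linearly from a five-concentration, 48-hour dose response in 96-well plates. GI50 = concentration required for 50% inhibition of growth. TGI: total growth inhibition.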 The source made the active and inactive calls. No stated cut-off is given here; in the data, active means GI50 below about 0.43 µM; inactive means the rest.

Columns and labels:
Assay in all cases: NCI tumour cell line growth inhibition, 48 h
[1] = system: SF-295 CNS
[2] = system: DU-145 prostate
[3] = system: HS 578T breast
[4] = system: A549 NSCLC
[5] = system: SNB-19 CNS
[6] = system: OVCAR-5 ovarian
[7] = system: UACC-62 melanoma
[8] = system: NCI/ADR-RES ovarian
[9] = system: EKVX NSCLC
[10] = system: U251 CNS
[11] = system: ACHN renal
[12] = system: SW-620 colon
[13] = system: HOP-92 NSCLC
[14] = system: OVCAR-4 ovarian
[15] = system: SK-OV-3 ovarian
[16] = system: K-562 leukemia
[17] = system: T-47D breast
[18] = system: HOP-62 NSCLC
[19] = system: SK-MEL-2 melanoma
[20] = system: OVCAR-3 ovarian
[21] = system: BT-549 breast
[22] = system: OVCAR-8 ovarian
[23] = system: HCC-2998 colon
[24] = system: COLO 205 colon
[25] = system: CAKI-1 renal
[26] = system: RPMI-8226 leukemia
[27] = system: NCI-H460 lung
[28] = system: LOX IMVI melanoma
[29] = system: UACC-257 melanoma
[30] = system: HCT-15 colon
[31] = system: KM12 colon
[32] = system: 786-0 renal
[33] = system: SK-MEL-28 melanoma
[34] = system: SK-MEL-5 melanoma
[35] = system: M14 melanoma
[36] = system: HCT-116 colon
[37] = system: UO-31 renal
[38] = system: PC-3 prostate
[39] = system: IGROV1 ovarian
[40] = system: RXF 393 renal
[41] = system: MDA-MB-435
[42] = system: MDA-MB-231 breast
[43] = system: HL-60(TB) leukemia
[44] = system: MOLT-4 leukemia
[45] = system: SNB-75 CNS
[46] = system: NCI-H522 lung
[47] = system: MCF7 breast
[48] = system: SF-539 CNS
[49] = system: TK-10 renal
[50] = system: MALME-3M melanoma
[51] = system: CCRF-CEM leukemia
[52] = system: SR leukemia

For O=[N+]([O-])C(=C(Cl)Cl)/C(Cl)=C(\Cl)Br, the outcome [1] was “inactive”, the outcome [2] was “inactive” and the outcome [3] was “inactive”. The outcome [4] was “inactive”, the outcome [5] was “inactive” and the outcome [6] was “inactive”. The outcome [7] was “inactive”.

Molecule CC(C)c1ccc2c(c1)CC[C@@H]1[C@@](C)(C(=O)O)CCC[C@]21C has a GI50 [8] of 17.8 µM, a TGI [8] of 57 µM and a GI50 [9] of 1.82 µM. For the same molecule, the TGI [9] was 6.94 µM, the GI50 [10] was 4.54 µM and the TGI [10] was 18.3 µM. For the same molecule, the GI50 [11] was 11.4 µM, the TGI [11] was 23.5 µM and the GI50 [12] was 10.2 µM. It also gave a TGI [12] of 22.8 µM, a GI50 [13] of 20.7 µM and a TGI [13] of 76.8 µM. The GI50 [14] was 4.23 µM, the TGI [14] was 10.8 µM and the GI50 [15] was 4.49 µM. The TGI [15] was 21.4 µM, the GI50 [1] was 3.74 µM and the TGI [1] was 17.1 µM. The GI50 [16] was 2.5 µM, the TGI [16] was 9.2 µM and the GI50 [2] was 4.39 µM. The TGI [2] was 19.6 µM, the GI50 [17] was 2.39 µM and the TGI [17] was 7.58 µM. It also gave a GI50 [18] of 10.8 µM, a TGI [18] of 22.7 µM and a GI50 [19] of 2.91 µM. For the same molecule, the TGI [19] was 16.1 µM, the GI50 [20] was 1.8 µM and the TGI [20] was 13.8 µM. For the same molecule, the GI50 [21] was 1.47 µM, the TGI [21] was 4.59 µM and the GI50 [22] was 2.16 µM. The TGI [22] was 7.87 µM, the GI50 [3] was 3.08 µM and the TGI [3] was 9 µM. For the same molecule, the GI50 [23] was 6.07 µM, the TGI [23] was 22.3 µM and the GI50 [24] was 3.23 µM. For the same molecule, the TGI [24] was 7.83 µM, the GI50 [25] was 2.93 µM and the TGI [25] was 12 µM. It also gave a GI50 [26] of 2.47 µM, a TGI [26] of 6.19 µM and a GI50 [4] of 5.56 µM. For the same molecule, the TGI [4] was 25 µM, the GI50 [27] was 5.07 µM and the TGI [27] was 18.4 µM. For the same molecule, the GI50 [28] was 3.43 µM, the TGI [28] was 16.8 µM and the GI50 [29] was 0.33 µM. For the same molecule, the TGI [29] was 3.86 µM, the GI50 [30] was 6.38 µM and the TGI [30] was 19.6 µM. For the same molecule, the GI50 [31] was 5.44 µM, the TGI [31] was 19.5 µM and the GI50 [32] was 4.58 µM. For the same molecule, the TGI [32] was 17 µM, the GI50 [5] was 6.21 µM and the TGI [5] was 18.6 µM. For the same molecule, the GI50 [6] was 5.49 µM, the TGI [6] was 25.6 µM and the GI50 [33] was 5.8 µM. The TGI [33] was 22.3 µM, the GI50 [7] was 4.87 µM and the TGI [7] was 18.4 µM. It also gave a GI50 [34] of 5.02 µM, a TGI [34] of 16.5 µM and a GI50 [35] of 10.4 µM. The TGI [35] was 22.1 µM, the GI50 [36] was 6.9 µM and the TGI [36] was 19.8 µM. The GI50 [37] was 2.76 µM, the TGI [37] was 12 µM and the GI50 [38] was 7.62 µM. For the same molecule, the TGI [38] was 82.6 µM, the GI50 [39] was 5.55 µM and the TGI [39] was 29 µM. It also gave a GI50 [40] of 0.0244 µM, a TGI [40] of 0.727 µM and a GI50 [41] of 10.9 µM. The TGI [41] was 29.5 µM, the GI50 [42] was 1.31 µM and the TGI [42] was 6.04 µM. It also gave a GI50 [43] of 3.4 µM and a TGI [43] of 20.9 µM.

In the case of Cn1c2ccccc2c2c3c(c4c5cc(Br)ccc5n(C)c4c21)C(=O)N(O)C3=O, the GI50 [8] is reported as 0.0926 µM, the TGI [8] is reported as > 100 µM and the GI50 [10] is reported as 0.0499 µM. The TGI [10] was 0.489 µM, the GI50 [11] was 0.0346 µM and the TGI [11] was 0.124 µM. The GI50 [12] was 0.127 µM, the TGI [12] was > 100 µM and the GI50 [13] was 0.18 µM. The GI50 [1] was 0.217 µM, the TGI [1] was 0.981 µM and the GI50 [16] was 0.197 µM. For the same molecule, the TGI [16] was > 100 µM, the GI50 [44] was 0.0474 µM and the TGI [44] was 0.275 µM. The GI50 [45] was 0.0595 µM, the TGI [45] was 0.659 µM and the GI50 [19] was > 48.2 µM. The TGI [19] was > 100 µM, the GI50 [46] was 0.167 µM and the TGI [46] was > 100 µM. For the same molecule, the GI50 [22] was 0.113 µM, the TGI [22] was > 100 µM and the GI50 [3] was 1.09 µM. The TGI [3] was > 100 µM, the GI50 [47] was 0.0579 µM and the TGI [47] was > 100 µM. For the same molecule, the GI50 [23] was 1.01 µM, the TGI [23] was > 100 µM and the GI50 [4] was 0.262 µM. The TGI [4] was > 100 µM, the GI50 [27] was 0.048 µM and the TGI [27] was 1.08 µM. The GI50 [29] was 0.264 µM, the TGI [29] was > 100 µM and the GI50 [30] was 0.199 µM. For the same molecule, the TGI [30] was > 100 µM, the GI50 [31] was 0.426 µM and the TGI [31] was > 100 µM. It also gave a GI50 [48] of 0.0403 µM, a TGI [48] of 0.323 µM and a GI50 [49] of 27.7 µM. For the same molecule, the TGI [49] was > 100 µM, the GI50 [32] was 0.289 µM and the TGI [32] was 1.4 µM. The GI50 [50] was 0.494 µM, the TGI [50] was > 100 µM and the GI50 [5] was 0.0536 µM. The TGI [5] was > 100 µM, the GI50 [33] was 0.584 µM and the TGI [33] was > 100 µM. The GI50 [7] was 0.308 µM, the TGI [7] was > 100 µM and the GI50 [34] was 0.129 µM. The TGI [34] was 0.403 µM, the GI50 [51] was 0.0323 µM and the TGI [51] was 0.185 µM. For the same molecule, the GI50 [38] was 0.497 µM, the TGI [38] was > 100 µM and the GI50 [39] was 0.284 µM. The TGI [39] was > 100 µM, the GI50 [52] was 0.0156 µM and the TGI [52] was 0.584 µM. It also gave a GI50 [40] of 0.217 µM, a TGI [40] of 0.703 µM and a GI50 [41] of 0.319 µM. For the same molecule, the TGI [41] was > 100 µM.
